Experimental data published in patent US20260248774A1, “INHIBITORS OF BACTERIAL TYPE III SECRETION SYSTEM” (MICROBIOTIX, INC., priority 2022, published 2026).
pIC50: −log10 of the molar value.

Key:
[1] = target: panel of human cytochrome P450s, receptors, and ion channels (Homo sapiens, UniProt P35408); conditions: assayed at 10 μM
[2] = target: panel of human cytochrome P450s, receptors, and ion channels (Rattus norvegicus, UniProt P15823); conditions: assayed at 10 μM
[3] = system: panel of human cytochrome P450s, receptors, and ion channels
[4] = target: panel of human cytochrome P450s, receptors, and ion channels (Homo sapiens, UniProt P08913); conditions: assayed at 10 μM
[5] = target: panel of human cytochrome P450s, receptors, and ion channels (Homo sapiens, UniProt P08588); conditions: assayed at 10 μM
[6] = target: panel of human cytochrome P450s, receptors, and ion channels (Homo sapiens, UniProt P29274); conditions: assayed at 10 μM
[7] = target: panel of human cytochrome P450s, receptors, and ion channels (Homo sapiens, UniProt P41595); conditions: assayed at 10 μM
[8] = target: panel of human cytochrome P450s, receptors, and ion channels (Homo sapiens, UniProt Q99720); conditions: assayed at 10 μM
CYP450 2C9 = CYP450 2C9 (Homo sapiens, UniProt P11712); assay: Cytochrome P450 inhibition, CYP2C9 (Eurofins Panlabs panel); assay type: in vitro ADME; conditions: assayed at 10 μM
Method: Cytochrome P450 Inhibition.
Assessment of off-target effects of priority compounds. To assess potential off-target effects, we will evaluate prioritized hits validated by in vivo testing in the Eurofins Panlabs HitProfilingScreen+CYP450 assay panel, which is performed by Eurofins as a fee for service. The assay panel of consists of assays for 30 receptors and transporters plus the five major CYP450 enzymes (1A2, 2C19, 2C9, 2D6, 3A4).

[9] = system: P. aeruginosa T3SS-mediated secretion (exoT-luxCDABE reporter strain MDM852); assay: Luciferase (exoT-lux) transcriptional reporter assay of T3SS-mediated secretion; assay type: cell-based, Pseudomonas aeruginosa; conditions: read-out: LUX Sec IC50; Table 1
Source text: Luciferase Transcriptional Reporter Assay of T3SS-Mediated Secretion with a Luminescent Signal.
A transcriptional fusion of the Photorhabdus luminescens lux operon (luxCDABE) to P. aeruginosa PAO1 T3SS effector gene exoT (PA0044) was constructed and used to build strain MDM852 as described previously (Aiello et al., 2010, Antimicrob Agents Chemother, 54:1988-1999). Induction of T3SS operons by Ca^++ depletion due to EGTA addition results in secretion of the T3SS negative regulator ExsE and the production of high levels of T3SS components including the luxCDABE gene products, which results in luminescence that is easily detected by a microplate reader. Inhibition of T3SS-mediated secretion of the negative regulator ExsE by a small molecule inhibitor causes reduced production of luxCDABE gene products and reduced luminescence. For inhibitor IC50 testing, compounds were added to a 96-well microplate in a concentration dilution series. Reporter strain MDM852 was grown at 37° C. in LBG to OD600 ~0.025-0.05, transferred into the microplate (50 uL/well) containing test compounds and EGTA (5 uL of 0.1 M stock solution), which was covered with a translucent gas-permeable seal (Abgene, Inc., Cat. No. AB-0718). […] Plates were incubated at room temperature for 300 min. Then, luminescence was measured in an Envision Multilabel microplate reader (PerkinElmer). The screening window coefficient, Z′-factor (see Zhang, et al., 1999, J. Biomol. Screen., 4:67-73), defined as the ratio of the positive and negative control separation band to the signal dynamic range of the assay, averaged 0.7 for the assay.

panel of human cytochrome P450s, receptors, and ion channels (Homo sapiens, UniProt P29274), sequence (P29274 whole entry): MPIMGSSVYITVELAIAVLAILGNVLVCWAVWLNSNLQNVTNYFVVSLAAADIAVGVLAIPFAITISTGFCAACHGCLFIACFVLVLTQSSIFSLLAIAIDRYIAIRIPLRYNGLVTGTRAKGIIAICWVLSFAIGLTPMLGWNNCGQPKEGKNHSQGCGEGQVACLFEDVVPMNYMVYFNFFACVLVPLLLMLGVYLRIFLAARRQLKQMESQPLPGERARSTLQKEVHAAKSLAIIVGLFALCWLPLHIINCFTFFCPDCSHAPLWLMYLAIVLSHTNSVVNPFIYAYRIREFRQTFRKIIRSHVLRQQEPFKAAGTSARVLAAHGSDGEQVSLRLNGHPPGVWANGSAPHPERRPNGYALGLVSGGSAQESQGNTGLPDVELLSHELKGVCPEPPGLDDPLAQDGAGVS
CYP450 2C9, sequence (P11712 whole entry): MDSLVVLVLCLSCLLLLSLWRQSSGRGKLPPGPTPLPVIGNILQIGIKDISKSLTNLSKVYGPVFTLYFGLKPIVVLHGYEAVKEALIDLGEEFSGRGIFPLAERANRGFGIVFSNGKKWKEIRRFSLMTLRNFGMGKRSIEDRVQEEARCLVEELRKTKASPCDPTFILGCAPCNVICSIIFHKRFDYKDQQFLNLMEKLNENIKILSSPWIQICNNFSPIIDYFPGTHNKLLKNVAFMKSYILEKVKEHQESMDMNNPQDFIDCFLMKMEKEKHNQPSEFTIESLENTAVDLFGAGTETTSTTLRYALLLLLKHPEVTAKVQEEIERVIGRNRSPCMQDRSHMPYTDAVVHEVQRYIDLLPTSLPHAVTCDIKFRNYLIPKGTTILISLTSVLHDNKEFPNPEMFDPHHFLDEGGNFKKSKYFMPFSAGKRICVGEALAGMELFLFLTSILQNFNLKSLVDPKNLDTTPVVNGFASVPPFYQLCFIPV
panel of human cytochrome P450s, receptors, and ion channels (Rattus norvegicus, UniProt P15823), sequence (P15823 whole entry): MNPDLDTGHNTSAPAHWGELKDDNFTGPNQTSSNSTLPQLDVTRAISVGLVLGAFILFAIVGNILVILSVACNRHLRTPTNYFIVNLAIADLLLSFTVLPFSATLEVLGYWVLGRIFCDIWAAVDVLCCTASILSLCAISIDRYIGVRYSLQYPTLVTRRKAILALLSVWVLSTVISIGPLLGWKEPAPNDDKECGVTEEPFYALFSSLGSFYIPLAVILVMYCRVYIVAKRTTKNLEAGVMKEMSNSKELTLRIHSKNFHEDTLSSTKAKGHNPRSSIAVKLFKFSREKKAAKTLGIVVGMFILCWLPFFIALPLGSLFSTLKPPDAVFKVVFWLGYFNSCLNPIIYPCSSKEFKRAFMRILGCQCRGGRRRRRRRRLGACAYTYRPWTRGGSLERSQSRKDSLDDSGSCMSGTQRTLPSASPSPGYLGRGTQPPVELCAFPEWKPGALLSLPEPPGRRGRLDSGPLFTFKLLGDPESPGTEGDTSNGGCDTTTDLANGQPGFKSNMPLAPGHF
panel of human cytochrome P450s, receptors, and ion channels (Homo sapiens, UniProt P08588), sequence (P08588 whole entry): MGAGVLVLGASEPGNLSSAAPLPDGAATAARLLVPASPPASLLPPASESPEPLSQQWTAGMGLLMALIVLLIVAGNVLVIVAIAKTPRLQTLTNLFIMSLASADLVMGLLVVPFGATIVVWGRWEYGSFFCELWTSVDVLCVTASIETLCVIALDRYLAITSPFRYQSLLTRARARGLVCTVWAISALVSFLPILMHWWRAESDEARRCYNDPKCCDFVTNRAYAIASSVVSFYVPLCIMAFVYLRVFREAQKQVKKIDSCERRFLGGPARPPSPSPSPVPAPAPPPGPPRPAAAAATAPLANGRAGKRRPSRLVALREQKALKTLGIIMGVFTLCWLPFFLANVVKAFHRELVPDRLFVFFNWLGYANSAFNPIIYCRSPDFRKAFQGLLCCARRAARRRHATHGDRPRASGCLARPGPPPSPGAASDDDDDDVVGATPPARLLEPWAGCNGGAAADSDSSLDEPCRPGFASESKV
panel of human cytochrome P450s, receptors, and ion channels (Homo sapiens, UniProt P41595), sequence (P41595 whole entry): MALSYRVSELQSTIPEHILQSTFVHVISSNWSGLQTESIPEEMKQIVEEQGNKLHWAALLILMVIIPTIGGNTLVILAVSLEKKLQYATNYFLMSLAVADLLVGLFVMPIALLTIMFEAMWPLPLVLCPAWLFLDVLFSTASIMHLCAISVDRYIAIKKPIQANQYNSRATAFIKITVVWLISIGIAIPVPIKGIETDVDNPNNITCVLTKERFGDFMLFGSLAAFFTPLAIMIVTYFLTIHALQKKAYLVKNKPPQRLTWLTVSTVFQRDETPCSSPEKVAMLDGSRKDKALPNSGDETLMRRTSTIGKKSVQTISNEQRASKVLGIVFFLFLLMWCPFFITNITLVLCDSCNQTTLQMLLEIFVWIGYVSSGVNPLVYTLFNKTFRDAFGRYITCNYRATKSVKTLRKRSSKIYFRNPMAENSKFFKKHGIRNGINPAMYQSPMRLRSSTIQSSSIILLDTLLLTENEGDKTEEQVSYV
panel of human cytochrome P450s, receptors, and ion channels (Homo sapiens, UniProt Q99720), sequence (Q99720 whole entry): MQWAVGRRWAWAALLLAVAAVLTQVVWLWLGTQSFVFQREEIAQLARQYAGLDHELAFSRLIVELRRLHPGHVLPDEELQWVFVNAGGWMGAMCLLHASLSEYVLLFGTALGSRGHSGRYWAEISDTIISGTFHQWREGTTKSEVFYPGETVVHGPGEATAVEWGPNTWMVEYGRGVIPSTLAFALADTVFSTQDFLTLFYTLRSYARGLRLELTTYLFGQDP
panel of human cytochrome P450s, receptors, and ion channels (Homo sapiens, UniProt P35408), sequence (P35408 whole entry): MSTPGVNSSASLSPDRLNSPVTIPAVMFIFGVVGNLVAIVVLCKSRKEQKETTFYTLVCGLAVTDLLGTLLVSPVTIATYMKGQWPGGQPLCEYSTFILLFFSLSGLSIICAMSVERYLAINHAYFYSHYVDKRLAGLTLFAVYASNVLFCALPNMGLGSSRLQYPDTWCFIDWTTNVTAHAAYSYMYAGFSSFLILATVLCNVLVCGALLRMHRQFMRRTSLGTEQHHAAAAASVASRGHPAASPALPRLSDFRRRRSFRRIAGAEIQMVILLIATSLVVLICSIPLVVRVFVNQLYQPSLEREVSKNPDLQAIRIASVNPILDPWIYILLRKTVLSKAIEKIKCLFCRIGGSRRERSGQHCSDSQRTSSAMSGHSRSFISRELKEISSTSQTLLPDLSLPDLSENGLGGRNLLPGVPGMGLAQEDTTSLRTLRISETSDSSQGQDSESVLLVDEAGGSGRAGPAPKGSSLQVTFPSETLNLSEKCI
panel of human cytochrome P450s, receptors, and ion channels (Homo sapiens, UniProt P08913), sequence (P08913 whole entry): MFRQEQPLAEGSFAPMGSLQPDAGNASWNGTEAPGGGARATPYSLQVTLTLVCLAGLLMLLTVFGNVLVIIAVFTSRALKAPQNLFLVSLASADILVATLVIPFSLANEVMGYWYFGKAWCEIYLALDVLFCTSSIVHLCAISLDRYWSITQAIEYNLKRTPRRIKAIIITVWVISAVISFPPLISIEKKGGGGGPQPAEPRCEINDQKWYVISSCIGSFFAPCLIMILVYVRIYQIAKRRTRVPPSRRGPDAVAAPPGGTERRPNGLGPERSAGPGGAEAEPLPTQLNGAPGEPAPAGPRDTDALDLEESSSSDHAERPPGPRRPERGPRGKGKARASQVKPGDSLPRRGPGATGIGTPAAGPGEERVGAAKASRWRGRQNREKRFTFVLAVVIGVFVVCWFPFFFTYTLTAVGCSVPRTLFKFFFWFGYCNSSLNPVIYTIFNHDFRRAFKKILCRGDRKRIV

## CCC(Oc1ccc(Cl)c(Cl)c1Cl)C(=O)NCc1ccc(F)cc1 (centres unmarked) [MBX-4532]
[1]
  Prostanoid EP4: −6
[2]
  Adrenergic α1B: 6
[3]; assayed at 10 μM
  Calcium Channel L-Type, Dihydropyridine: 56
  GABAA, Flunitrazepam, Central: −1
  GABAA, Muscimol, Central: 2
  Glutamate, NMDA, Phencyclidine: 29
  Imidazoline I2, Central: 27
  Nicotinic Acetylcholine αβ4: 7
  Phorbol Ester: 5
  Potassium Channel [KATP]: 0
  Rolipram: 23
  Sodium Channel, Site 2: 39
[3]; assessment in text
  specificity vs mammalian receptors and enzymes, including hERG: not specific enough
[4]
  Adrenergic α2A: 23
[5]
  Adrenergic β1: 2
[6]
  Adenosine A2A: 10
[7]
  Serotonin (5-Hydroxytryptamine) 5-HT2B: 59
[8]
  Sigma σ1: 70
CYP450 2C9
  CYP450, 2C9: −30
[9]
  pIC50: 5.79
